# Reference: patent US20240239801A1, “PYRIMIDO[5,4,D]PYRIMIDINE COMPOUNDS, COMPOSITIONS COMPRISING THEM AND USES THEREOF” (Université de Montréal, priority 2021, published 2024)
# System: RAS-mutant cancer cell lines pERK
# Test: Phospho-ERK inhibition in a panel of cancer cell lines (AlphaLISA)
# Assay type: cell-based, human
# Experimental: All cancer cell lines (A375, A101D, A2058, RKO, HT29 SK-MEL 30, IPC298, HepG2, HCT-116, Lovo, SW620, SW480, NCI-H358, NCI-H2122, Calu-6, NCIH2087, NCIH1755, NCIH1666 and Mewo) were obtained from ATCC and cultured in RPMI-1640 medium (Gibco) supplemented with 5% heat inactivated fetal bovine serum (FBS, Wisent) at 37° C. under 5% CO2. Cells were maintained in T175 flasks (Greiner). They were passaged by removing the culture medium, washing once in 10 mL of room temperature Phosphate Buffered Saline (PBS; Wisent) and incubating at 37° C. with 2 mL of 0.05% Trypsin (Thermo-Fisher). […]
# After treatment, media was removed, and cells were lysed in 50 μL of 1× AlphaScreen Ultra Lysis Buffer (Perkin Elmer). […] After completion of the reactions, the signals were recorded on an EnVision plate reader (Perkin Elmer) using built in AlphaLISA® settings.
# The effect of each compound dilution on the pERK signal was expressed in % inhibition and calculated as follows. […]
# The ability of each compound to inhibit pERK signal was expressed as an IC50 value obtained by plotting the inhibition values for each data point of a dilution series and fitting the obtained curves using a log(agonist) versus response−variable slope (four parameters) function using GraphPadPrism (V7.0). […]
compound,measurement,setting,value
"Cc1ccc2c(Nc3cccc(Cl)c3F)nccc2c1NC(=O)c1csc2c(N)ncnc12 [Belvarafenib, reference compound]",paradoxical induction of the pathway (pERK),RAS-mutant cell lines of Table D,mild to strong induction of the pathway
same,YMIN of pERK IC50 curves,in 11 of the 13 RAS-mutant cell lines tested,< −30%
